The results in this text go back to PubChem BioAssay AID1845203 (Molecular Pharmacology Branch, DTP, NCI, 2023).

The IC50 is the concentration that inhibits the measured activity by half. As usually defined, the viability, T/C is the ratio of treated to control.

“And” between values parts separate entries of the source, which are not always exact repeats. Equal entries are not always repeated.

In this experiment the test system is G-401 tumor spheroids, viability % test/control. In words: Anticancer human tumor G-401 cell line growth inhibition.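 On all read-outs here: spheroids exposed to compound for 7 days.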 Conditions: spheroids with HUVEC and MSC; for viability, T/C: stronger effect = lower value. In short, it runs like this:
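Single agents and combinations were tested on spheroids built from tumor cells plus HUVEC and hMSC, at half-log dilutions starting at or near clinical Cmax, else 10 microM; final DMSO 0.25% (v/v).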

Setting [1] is: curve of first compound, second compound 0.003 µM.

As to `COc1ccc([C@@H](O)c2cc(-c3ncnc4cc(N5CCOCC5)ccc34)c(F)cc2Cl)nn1` + COc1cc2c(cc1O)CCNC21CSC2c3c(OC(C)=O)c(C)c4c(c3C(COC1=O)N1C(O)C3Cc5cc(C)c(OC)c(O)c5C(C21)N3C)OCO4, the IC50 is 1000 nM (curve of first compound, second compound 30 pM); 493 nM (curve of first compound, second compound 94.9 pM); less than 31.6 nM (curve of first compound, second compound 0.0003 µM); less than 31.6 nM (curve of first compound, second compound 0.000949 µM); less than 31.6 nM under setting [1]. Also, the viability, T/C reads like this: (second compound 30 pM, first compound 0.0316 µM) 93.1%; (second compound 30 pM, first compound 0.1 µM) 99.2%; (second compound 30 pM, first compound 0.316 µM) 87.4%; (second compound 30 pM, first compound 1 µM) 50%; (second compound 30 pM, first compound 3.16 µM) 16.5%; (second compound 30 pM, first compound 10 µM) 9.53%. Moreover, the viability, T/C is 83.8% (second compound 94.9 pM, first compound 0.0316 µM); 83.1% (second compound 94.9 pM, first compound 0.1 µM); 63.6% (second compound 94.9 pM, first compound 0.316 µM); 27.7% (second compound 94.9 pM, first compound 1 µM); 9.96% (second compound 94.9 pM, first compound 3.16 µM); 5.51% (second compound 94.9 pM, first compound 10 µM). Moreover, the viability, T/C was 40% (second compound 0.0003 µM, first compound 0.0316 µM); 29.8% (second compound 0.0003 µM, first compound 0.1 µM); 18.6% (second compound 0.0003 µM, first compound 0.316 µM); 8.98% (second compound 0.0003 µM, first compound 1 µM); 3.1% (second compound 0.0003 µM, first compound 3.16 µM); 0.75% (second compound 0.0003 µM, first compound 10 µM). Also, the viability, T/C runs as follows: (second compound 0.000949 µM, first compound 0.0316 µM) 5.15%; (second compound 0.000949 µM, first compound 0.1 µM) 5.57%; (second compound 0.000949 µM, first compound 0.316 µM) 2.21%; (second compound 0.000949 µM, first compound 1 µM) 0.51%; (second compound 0.000949 µM, first compound 3.16 µM) 0.05%; (second compound 0.000949 µM, first compound 10 µM) 0.16%. In addition, the viability, T/C is 0.22% (second compound 0.003 µM, first compound 0.0316 µM); 0.25% (second compound 0.003 µM, first compound 0.1 µM); 0.21% (second compound 0.003 µM, first compound 0.316 µM); 0.21% (second compound 0.003 µM, first compound 1 µM); 0.16% (second compound 0.003 µM, first compound 3.16 µM); 0.25% (second compound 0.003 µM, first compound 10 µM).
In the case of `Cn1ncnc1[C@H]1c2n[nH]c(=O)c3cc(F)cc(c23)N[C@@H]1c1ccc(F)cc1` + CC[C@@]1(O)C(=O)OCc2c1cc1n(c2=O)Cc2cc3c(CN(C)C)c(O)ccc3nc2-1, the 50% inhibitory concentration (IC50) under setting [1] was less than 9.49 nM; the IC50 (curve of first compound, second compound 0.00949 µM) is less than 9.49 nM; the IC50 (curve of first compound, second compound 0.03 µM) is less than 9.49 nM; the IC50 (curve of first compound, second compound 0.0949 µM) was less than 9.49 nM; the IC50 (curve of first compound, second compound 0.3 µM) was less than 9.49 nM. For the same molecule, the viability, T/C reads like this: (second compound 0.003 µM, first compound 0.00949 µM) 30.3%; (second compound 0.003 µM, first compound 0.03 µM) 25.3%; (second compound 0.003 µM, first compound 0.0949 µM) 22.9%; (second compound 0.003 µM, first compound 0.3 µM) 14.9%; (second compound 0.003 µM, first compound 0.949 µM) 13.6%; (second compound 0.003 µM, first compound 3 µM) 8.75%. Besides, the viability, T/C is 14.6% (second compound 0.00949 µM, first compound 0.00949 µM); 14.9% (second compound 0.00949 µM, first compound 0.03 µM); 11.5% (second compound 0.00949 µM, first compound 0.0949 µM); 10.4% (second compound 0.00949 µM, first compound 0.3 µM); 8.82% (second compound 0.00949 µM, first compound 0.949 µM); 7.7% (second compound 0.00949 µM, first compound 3 µM). For the same molecule, the viability, T/C by setting is: (second compound 0.03 µM, first compound 0.00949 µM) 8.82%; (second compound 0.03 µM, first compound 0.03 µM) 7.7%; (second compound 0.03 µM, first compound 0.0949 µM) 6.78%; (second compound 0.03 µM, first compound 0.3 µM) 6.5%; (second compound 0.03 µM, first compound 0.949 µM) 6.42%; (second compound 0.03 µM, first compound 3 µM) 5.33%. Besides, the viability, T/C by setting is: (second compound 0.0949 µM, first compound 0.00949 µM) 6.07%; (second compound 0.0949 µM, first compound 0.03 µM) 5.84%; (second compound 0.0949 µM, first compound 0.0949 µM) 6.01%; (second compound 0.0949 µM, first compound 0.3 µM) 5.6%; (second compound 0.0949 µM, first compound 0.949 µM) 5.23%; (second compound 0.0949 µM, first compound 3 µM) 3.98%. The viability, T/C by setting is: (second compound 0.3 µM, first compound 0.00949 µM) 4.4%; (second compound 0.3 µM, first compound 0.03 µM) 4.94%; (second compound 0.3 µM, first compound 0.0949 µM) 4.58%; (second compound 0.3 µM, first compound 0.3 µM) 4.17%; (second compound 0.3 µM, first compound 0.949 µM) 3.92%; (second compound 0.3 µM, first compound 3 µM) 2.85%.
As to `O=C(c1cc(Cc2n[nH]c(=O)c3ccccc23)ccc1F)N1CCN(C(=O)C2CC2)CC1`, the viability, T/C (compound 0.0949 µM) is 98.3% and 98.6% and 96.5%; the viability, T/C (compound 0.3 µM) is 97.5% and 84.9% and 91.2%; the viability, T/C (compound 0.949 µM) was 96.1% and 86.9% and 105%; the viability, T/C (compound 3 µM) was 83.7% and 82.5% and 87%; the viability, T/C (compound 9.49 µM) is 54.9% and 49.4% and 58.5%; the viability, T/C (compound 30 µM) was 40.1% and 28.5% and 34.9%. Also, the IC50 (curve of compound) was 13900 nM and 9390 nM and 14200 nM.
`Cn1nnc2c(C(N)=O)ncn2c1=O`: the viability, T/C (compound 1 µM) is 102% [middle of 10 runs]; the viability, T/C (compound 3.16 µM) was 102% [middle of 10 runs]; the viability, T/C (compound 10 µM) is 103% [middle of 10 runs]; the viability, T/C (compound 31.6 µM) was 96.8% [middle of 10 runs]; the viability, T/C (compound 100 µM) was 94.8% [middle of 9 runs]. In addition, the IC50 (compound alone, run of 12/02/2019) is greater than 100000 nM.
Turning to `COc1ccc([C@@H](O)c2cc(-c3ncnc4cc(N5CCOCC5)ccc34)c(F)cc2Cl)nn1`, the viability, T/C (compound 0.0316 µM) is 101% and 107% and 106%; the viability, T/C (compound 0.1 µM) was 91.2% and 94.8% and 97.8%; the viability, T/C (compound 0.316 µM) was 82.3% and 92.2% and 94.8%; the viability, T/C (compound 1 µM) was 50.2% and 63.6% and 69.6%; the viability, T/C (compound 3.16 µM) was 22.2% and 24% and 31%; the viability, T/C (compound 10 µM) is 11% and 10.1% and 15.4%. Further, the IC50 (curve of compound) was 1020 nM and 1480 nM and 1800 nM.
